Active and inactive are the calls of the source. No cut-off for these calls is given here.
Tests used:
[1] = Plasma clearance in rat; assay type: ADME, organism-based
[2] = Clearance in Sprague-Dawley rat at 10 mg/kg, po administered as single dose by LC-PDA-MS/MS analysis; assay type: ADME, organism-based; conditions: in vivo
[3] = Cmax in Sprague-Dawley rat at 10 mg/kg, po administered as single dose by LC-PDA-MS/MS analysis; assay type: ADME, organism-based; design: dose 10 mg/kg, route oral; conditions: in vivo
[4] = AUC (0 to 24 hrs) in Sprague-Dawley rat at 10 mg/kg, po administered as single dose by LC-PDA-MS/MS analysis; assay type: ADME, organism-based; design: time < 24 hr, dose 10 mg/kg, route oral; conditions: in vivo
[5] = Half life in Sprague-Dawley rat at 10 mg/kg, po administered as single dose by LC-PDA-MS/MS analysis; assay type: ADME, organism-based; conditions: in vivo
[6] = test system: Mus musculus; test: Hypoglycemic activity in C57BL/6 DIO mouse model assessed as decrease in blood glucose AUC (0 to 120 mins) at 30 mg/kg administered via gavage twice daily for 28 days measured before glucose challenge by OGTT; assay type: functional, organism-based; conditions: tested as the 2H-labelled form
[7] = test system: Mus musculus; test: Hypoglycemic activity in C57BL/6 DIO mouse model assessed as decrease in blood glucose AUC (0 to 120 mins) at 30 mg/kg administered via gavage twice daily for 28 days measured on day 29 by OGTT; assay type: functional, organism-based; conditions: tested as the 2H-labelled form
[8] = test system: Mus musculus; test: Hypoglycemic activity in C57BL/6 DIO mouse model assessed as fasting glucose levels at 30 mg/kg administered via gavage twice daily for 28 days measured on day 29 by OGTT; assay type: functional, organism-based; conditions: tested as the 2H-labelled form
[9] = molecular target: T1, Free fatty acid receptor 4 (Homo sapiens, UniProt Q5NUL3); test: Agonist activity at human FFAR4 expressed in CHO cells assessed as beta-arrestin recruitment after 90 mins by luminescence assay; assay type: functional, cell-based
T1 sequence (Q5NUL3 whole entry): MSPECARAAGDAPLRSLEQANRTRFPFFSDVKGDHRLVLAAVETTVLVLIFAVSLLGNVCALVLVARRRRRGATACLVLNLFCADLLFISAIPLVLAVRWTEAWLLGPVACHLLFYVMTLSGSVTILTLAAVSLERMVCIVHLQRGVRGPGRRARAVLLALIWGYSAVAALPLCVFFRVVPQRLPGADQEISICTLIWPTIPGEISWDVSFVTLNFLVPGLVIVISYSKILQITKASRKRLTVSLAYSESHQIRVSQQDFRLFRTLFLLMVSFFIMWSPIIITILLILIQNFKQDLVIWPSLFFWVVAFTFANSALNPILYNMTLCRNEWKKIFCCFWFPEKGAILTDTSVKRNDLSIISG

[10] = test system: Mus musculus; test: Toxicity in C57BL/6 DIO mouse model at 30 mg/kg administered via gavage twice daily for 28 days; assay type: organism-based; conditions: in vivo, po, 672 h

Compound | clearance [1] | CL/F [2] | Cmax [3] | AUC(0-t) at 24 h [4] | half-life [5] | Activity [6] | Activity [7] | Activity [8] | EC50 [9] | Activity [10]
Cc1ccc(-c2ccc(F)cc2COc2ccc(CCC(=O)O)cc2)cc1 | 61.2 mL/min/kg | 61.2 mL/min/kg | 969 ng/mL | 1370 ng·h/mL | 0.79 h | inactive | Active | Active |  | 
Cc1cc(OCCCS(C)(=O)=O)cc(C)c1-c1cccc(COc2ccc3c(c2)OC[C@H]3CC(=O)O)c1 |  |  |  |  |  |  |  |  | > 10 µM | 
[2H]C([2H])(Cc1ccc(OCc2cc(F)ccc2-c2ccc(C)cc2)cc1)C(=O)O |  | 16.2 mL/min/kg | 2040 ng/mL | 6280 ng·h/mL | 1.66 h |  |  |  |  | Non-Toxic

Source: ChEMBL document CHEMBL4177656, “Improving metabolic stability with deuterium: The discovery of GPU-028, a potent free fatty acid receptor 4 agonists” (Bioorg Med Chem, 2017)
